The data set can be described thus: Human HepG2 cell viability assay in 384 well format. Format: toxicity, cell-based. Further details: dose 125 nL, time 70.5 hour; concentration not given beside the values. Conditions: HepG2 cells, read-out: Inhibition.

`CC(C)c1nn(C)c(N(C)C)c1CNC1CCOc2ccccc21` (stereo unspecified): the cytotoxicity at 70.5 h turned out to be 7.29%. Turning to `O=C(CCn1cnc2cc(F)c(F)cc21)N1CCN(C2CC2)CC1`, the cytotoxicity at 70.5 h is -5.93%. The result for `Cn1c(CN2CCCC(N3CCNC3=O)C2)cc(=O)n(C)c1=O` (stereo unspecified) reads 26.4%; that for `Cn1c(CN2CCCC(N3CCCCCC3)C2)cc(=O)n(C)c1=O` (stereo unspecified), -4.65%. As for `COc1ccc(OC)c(CN2CCN(Cc3cscn3)CC2)c1`, the cytotoxicity at 70.5 h is -5.74%. For the molecule `Cc1cnn(CC(C)Nc2cnc3ccccc3n2)c1` (stereo unspecified), the cytotoxicity at 70.5 h was 4.57%. As to `CCC(=O)NCC(=O)NC(C)c1ccc(OCCC(C)C)cc1` (stereo unspecified), the cytotoxicity at 70.5 h is -2.78%. For `CC(C)OCCC(=O)NCC(O)c1c(F)cccc1F` (stereo unspecified), the cytotoxicity at 70.5 h is -6.84%.

`Cc1ccc(S(=O)(=O)N2CCOCC2C#N)c(F)c1` (stereo unspecified): the cytotoxicity at 70.5 h amounted to 2.28%. Regarding `CN1CC(NC(=O)Nc2cnn(-c3ccccc3Cl)c2)CCC1=O` (stereo unspecified), the cytotoxicity at 70.5 h is -3.58%. On to `O=C(COc1ccc2c(c1)OCC2O)NCc1ccco1` (stereo unspecified), for which the cytotoxicity at 70.5 h is -0.449%. For the molecule `COc1ccccc1CNC(=O)COc1ccc2c(c1)OCC2O` (stereo unspecified), the cytotoxicity at 70.5 h was -5.21%. With `COC(=O)CN(C(=O)c1cccc(F)c1Cl)c1cccc(C)n1`, the cytotoxicity at 70.5 h came to 1.83%.

Take `COC(=O)CN(C(=O)c1cc(C)c(F)cc1F)c1cccc(C)n1`: the cytotoxicity at 70.5 h was -5.14%. Take `CCC(c1ccccc1)N1CCN(CCO)CC1` (stereo unspecified): the cytotoxicity at 70.5 h was -6.76%. As for `Cc1ccc(CN(C)C(=O)CCn2c(=O)n(C)c3ccccc32)o1`, the cytotoxicity at 70.5 h is -6.04%.

As for `COC(=O)CN(C(=O)C(C)c1c(F)cccc1F)c1cccc(C)n1` (stereo unspecified), the cytotoxicity at 70.5 h is -4.95%. On to `CCCn1c(=O)n(CCC(=O)N(C)Cc2ccc(C)o2)c2ccccc21`, for which the cytotoxicity at 70.5 h is -4.98%. For the molecule `CC(C)c1nn(C)c(N(C)C)c1CNC1CCCOc2ccccc21` (stereo unspecified), the cytotoxicity at 70.5 h was found to be 31.4%.

For `CCN(CC(C)C#N)C(=O)CNc1cc(Cl)ccc1C(N)=O` (stereo unspecified), the cytotoxicity at 70.5 h was determined as 3.41%. `O=C(NCC1CC1)c1ccc(NC(=O)c2ccco2)cc1`: the cytotoxicity at 70.5 h is -5.31%.

On to `COc1ccccc1CCNS(=O)(=O)N1CCOCC1`, for which the cytotoxicity at 70.5 h was -11.8%. Turning to `O=C(c1cc2c(s1)CCC2)N1CCN(c2cnccn2)CC1`, the cytotoxicity at 70.5 h is -14.9%. Regarding `CC1CN(C(=O)Nc2cc(C(F)(F)F)c[nH]c2=O)CC(C)(C)O1` (stereo unspecified), the cytotoxicity at 70.5 h is -8.86%. Regarding `COC(=O)c1ccc(NC(C)c2ccc3c(c2)CC(=O)N3)nn1` (stereo unspecified), the cytotoxicity at 70.5 h is -10.3%. Regarding `CCc1ccc(S(=O)(=O)N2CCCn3ncnc32)s1`, the cytotoxicity at 70.5 h was -3.85%. Turning to `O=S(=O)(c1ccc(Cl)s1)N1CCCn2ncnc21`, the cytotoxicity at 70.5 h is -1.11%. For `CCS(=O)(=O)CCSc1ccc(Br)cc1`, the cytotoxicity at 70.5 h was -6.15%. On to `CCc1nc(C2CCCN(c3nccc(N4CCCC4)n3)C2)no1` (stereo unspecified), for which the cytotoxicity at 70.5 h was -0.206%. The result for `CN(C)C(=O)c1cccc(CCNS(=O)(=O)c2ccccc2)c1` reads -1.77%. On to `CCOc1ccc(Cl)cc1CCNC(=O)N1CCCC(CO)C1` (stereo unspecified), for which the cytotoxicity at 70.5 h was -7.21%. As to `CCn1nc(C)cc1C(=O)OCCNC(=O)c1ccccc1`, the cytotoxicity at 70.5 h is -0.786%. On to `COc1c(CNCc2ccccc2-n2ccnc2)c(C)nn1C`, for which the cytotoxicity at 70.5 h worked out at 8.51%. As for `CCOc1cc(Cl)ccc1CNC(=O)N1CCCC(CO)C1` (stereo unspecified), the cytotoxicity at 70.5 h is -9.17%. The figure for `COc1c(CNCc2ccccc2Cn2cccn2)c(C)nn1C` is -5.48%; for `COCCn1cc(C(=O)N2CCCC2c2cccs2)c2ccccc21` (stereo unspecified) it is 7.25%; for `Cc1cc(CC(=O)NCC(O)COc2ccc(F)c(F)c2)n[nH]1` (stereo unspecified) it is 17.8%. As for `Cc1nnc(C(C)Nc2ccc(OCCc3ccccc3)nc2)o1` (stereo unspecified), the cytotoxicity at 70.5 h amounted to 0.291%.

Consider `CN(C)c1ccc(C(=O)N2CCCC2c2ccc(Cl)cc2)cc1` (stereo unspecified), for which the cytotoxicity at 70.5 h is -4.22%.

Regarding `CC(C)c1noc(CCC(=O)N2CCN(C)CC2c2ccccc2)n1` (stereo unspecified), the cytotoxicity at 70.5 h is -9.08%. In the case of `CCC(C)(CNC(=O)Nc1nccs1)N1CCOCC1` (stereo unspecified), the cytotoxicity at 70.5 h was -8.6%. On to `Cc1noc(CCCC(=O)N2CCN(C)CC2c2ccccc2)n1` (stereo unspecified), for which the cytotoxicity at 70.5 h was 29.2%.

Take `CC(C)c1noc(CCCC(=O)N2CCN(C)CC2c2ccccc2)n1` (stereo unspecified): the cytotoxicity at 70.5 h was -8.67%. In the case of `CC(NC(=O)N1CCc2ccccc21)c1nncn1C` (stereo unspecified), the cytotoxicity at 70.5 h was -12.2%. On to `CC(=O)N(C)CC(=O)NC1(c2ccc(Cl)c(Cl)c2)CC1`, for which the cytotoxicity at 70.5 h was -10%. In the case of `N#Cc1ccc(CN2CCCN(C(=O)CCn3cncn3)CC2)cc1`, the cytotoxicity at 70.5 h is -10.9%. With `COc1cc2c(cc1OC)CN(C(=O)NC(C)c1nncn1C)CC2` (stereo unspecified), the cytotoxicity at 70.5 h came to 26.1%. Regarding `O=C(c1ccc(-n2ccnc2)nc1)N1CCN2CCCCC2C1` (stereo unspecified), the cytotoxicity at 70.5 h is -10.4%.

For `Cc1cc(C)cc(N(C)S(=O)(=O)c2cc3c(c(C(=O)O)c2)OCCO3)c1`, the cytotoxicity at 70.5 h is -12.8%. For `CN(C)c1ccc(C(=O)N2CCCC2c2cnn(C)c2)nn1` (stereo unspecified), the cytotoxicity at 70.5 h was -11.7%. Consider `CN(c1ccccc1)S(=O)(=O)c1cc2c(c(C(=O)O)c1)OCCO2`, for which the cytotoxicity at 70.5 h was -9.42%.

In the case of `Cc1ccccc1CS(=O)(=O)c1nnc(N2CCOCC2)s1`, the cytotoxicity at 70.5 h came to 8.66%. `CNC(=O)c1cccnc1N1CCN(C/C=C/c2ccccc2)CC1`: the cytotoxicity at 70.5 h was determined as 6.62%. As to `COc1cc(C(C)NCc2c[nH]nc2C)ccc1OCCO` (stereo unspecified), the cytotoxicity at 70.5 h was determined as 7.95%. `CC(=O)NCCCSC1CCN(c2ccccc2Cl)C1=O` (stereo unspecified): the cytotoxicity at 70.5 h was -10.2%. Consider `Cn1cc(C(=O)CC2CCCN2C(=O)c2ccc(Cl)o2)cn1` (stereo unspecified), for which the cytotoxicity at 70.5 h was found to be 2.73%. In the case of `Cn1cc(C(=O)CC2CCCN2C(=O)c2ccc(Cl)cn2)cn1` (stereo unspecified), the cytotoxicity at 70.5 h is -8.95%. Take `CCc1nc(C2CCCN(C(=O)C3=NN(C(C)C)C(=O)CC3)C2)no1` (stereo unspecified): the cytotoxicity at 70.5 h is -13.3%. With `CCN1N=C(C(=O)N2CCCC(c3noc(C)n3)C2)CCC1=O` (stereo unspecified), the cytotoxicity at 70.5 h is 22.2%.

Turning to `COc1cc(C(=O)N2CCCC2CC(=O)c2cnn(C)c2)ccc1F` (stereo unspecified), the cytotoxicity at 70.5 h is 8.93%. As for `CCCc1n[nH]c(C2CN(Cc3ncc[nH]3)CCO2)n1` (stereo unspecified), the cytotoxicity at 70.5 h worked out at 4.94%.

For `N#Cc1cn(CCCN2CCc3ccccc32)c(=O)[nH]c1=O`, the cytotoxicity at 70.5 h was found to be 21.5%. The figure for `O=C(Cn1cc(Cl)cn1)Nc1ccc2c(c1)OCO2` is -2%; for `O=C(NC1CC1)C1CCCN(c2cccc(C(F)(F)F)n2)C1` (stereo unspecified) it is -5.01%. `CC(C(=O)N1CCN(C(=O)c2ccc(F)cc2F)CC1)n1ccnc1` (stereo unspecified): the cytotoxicity at 70.5 h is -4.77%. Turning to `O=C(CN1CCS(=O)(=O)CC1)NC1CCCCc2ccccc21` (stereo unspecified), the cytotoxicity at 70.5 h was -1.09%.

Take `CCc1cc(=O)[nH]c(-c2ccc(NCCc3ccc(O)cc3)nc2)n1`: the cytotoxicity at 70.5 h is -3.24%. With `Cn1c(C2CC2)nc2cc(NC(=O)C3(O)CCCC3)ccc21`, the cytotoxicity at 70.5 h is -4.26%. As for `Cc1c(NCc2ccc(C#N)cc2)cccc1S(=O)(=O)NC1CC1`, the cytotoxicity at 70.5 h is 1.12%. For `Cc1c(NCc2cccc(C#N)c2)cccc1S(=O)(=O)NC1CC1`, the cytotoxicity at 70.5 h is 4.95%.

For the molecule `CC(CS(C)(=O)=O)N(C(=O)CCc1ccsc1)C1CC1` (stereo unspecified), the cytotoxicity at 70.5 h is -4.58%. For the molecule `C1CCC(CSc2nnnn2C2CC2)OC1` (stereo unspecified), the cytotoxicity at 70.5 h is -0.703%. Take `Cc1ccc(C(=O)N2CCN(C(=O)C(C)n3ccnc3)CC2)cc1F` (stereo unspecified): the cytotoxicity at 70.5 h was -5.92%. As for `CN(C(=O)CCC(F)(F)F)c1cccc2ncccc12`, the cytotoxicity at 70.5 h was 42.6%. For the molecule `Cc1ccc(C(=O)NCc2ccc(N(C)C)cc2)cn1`, the cytotoxicity at 70.5 h is -10.4%. On to `Cc1ccccc1CS(=O)(=O)Cc1nc(C2CC2)no1`, for which the cytotoxicity at 70.5 h is -3.39%. As for `O=C(Cc1ccc2c(c1)CCO2)Nc1cccnc1-n1cncn1`, the cytotoxicity at 70.5 h was determined as 16.3%.

Consider `COc1ccc(N(C)C(=O)c2ccc(Cl)c(S(C)(=O)=O)c2)cn1`, for which the cytotoxicity at 70.5 h is -2.77%. The result for `O=C(NCCN1CCOCC1)c1ccc(OCc2ccccc2)nc1` reads -1.05%; that for `Cc1cccc(NC(=O)CN(C)C(=O)c2ccc(OC(C)C)nc2)n1`, -2.88%.

Regarding `O=C(Nc1ccc(Cl)cn1)C1CCCN(Cc2ccccn2)C1` (stereo unspecified), the cytotoxicity at 70.5 h was -1.12%. Consider `CCc1noc(CS(=O)(=O)Cc2ccccc2C)n1`, for which the cytotoxicity at 70.5 h stood at 15%.

Turning to `CCc1noc(CS(=O)(=O)Cc2nc(Cc3ccccc3)no2)n1`, the cytotoxicity at 70.5 h is -5.38%. As to `Cc1ccc(C(=O)N(C)CC(=O)Nc2cccc(C)n2)cn1`, the cytotoxicity at 70.5 h was -6.04%. Consider `Cc1nn(C)c(C)c1NC(=O)CN1CCCC1c1noc(C(C)C)n1` (stereo unspecified), for which the cytotoxicity at 70.5 h was -5%. `CCOc1ccc(NC(C)C(=O)NCCc2cccs2)cc1CO` (stereo unspecified): the cytotoxicity at 70.5 h is -3.5%. Consider `COc1c(C2CCCN2C(=O)c2ccoc2C)c(C)nn1C` (stereo unspecified), for which the cytotoxicity at 70.5 h is 7.26%. For the molecule `CC(NC(=O)CCCOc1cccc(F)c1)c1ccncc1` (stereo unspecified), the cytotoxicity at 70.5 h was -4.8%.

With `CCn1ccnc1CN1CCN(Cc2cnc(C)cn2)CC1C` (stereo unspecified), the cytotoxicity at 70.5 h was determined as 4.47%. `O=C(NCCCOCc1ccco1)c1cccnc1N1CCOCC1`: the cytotoxicity at 70.5 h was determined as 6.19%. Consider `CCn1ccnc1CN1CCN(CCCS(C)(=O)=O)CC1C` (stereo unspecified), for which the cytotoxicity at 70.5 h stood at 12.1%. For the molecule `Cc1cc(C)n(CC2CN(Cc3cccc(C#N)c3)CCO2)n1` (stereo unspecified), the cytotoxicity at 70.5 h is -3.79%. In the case of `NC(=O)c1ccc(CN2CCCC(N3CCCCCC3)C2)cc1` (stereo unspecified), the cytotoxicity at 70.5 h turned out to be 1.67%. In the case of `CCOc1ncccc1C(=O)N1CCCC(n2nc(C)cc2C)C1` (stereo unspecified), the cytotoxicity at 70.5 h is -5.39%. For `Cc1cnn(CC2CCCN2C(=O)Cn2nc(C)c(Cl)c2C)c1` (stereo unspecified), the cytotoxicity at 70.5 h was -1.94%. Turning to `Cc1cc(C)cc(NC(=O)CC2CN(Cc3ccccc3)CCO2)c1` (stereo unspecified), the cytotoxicity at 70.5 h was -4.17%. The figure for `Cc1nc(C)n(C2CCCN(C(=O)CCn3ccnn3)C2)n1` (stereo unspecified) is 0.306%. `COc1cccc(-c2n[nH]cc2CNC2CCN(C(C)C)CC2)c1`: the cytotoxicity at 70.5 h is -0.27%.

Take `COc1cccc(-c2n[nH]cc2CNC2CCC(O)CC2)c1` (stereo unspecified): the cytotoxicity at 70.5 h is -15.9%.

Turning to `CC(C)c1nn(C)c(N(C)C)c1CNC1CCOc2c(F)cccc21` (stereo unspecified), the cytotoxicity at 70.5 h is -2%. In the case of `COc1ccc(C(C)NCc2c[nH]nc2C)cc1OC` (stereo unspecified), the cytotoxicity at 70.5 h was -8.7%.

Values taken from ChEMBL document CHEMBL3507680, “University of Dundee, Gates Library screen for HepG2 cell viability”.
